# Where two headings read alike, the source gives them in different places.
# Legend:
# rat brain synaptosome = test: Competitive rat brain synaptosome assay (displacement of tritiated brevetoxin PbTx-2); assay type: binding; conditions: for Ki / EC50: competition with tritiated PbTx-2; for EC50: read-out: approximate EC50; for displacement of tritiated brevetoxin PbTx-2: compound added at about 1000× the concentration of the tritiated PbTx-2
# Procedure: Competitive rat brain synaptosome assays were performed as described in Poli et al., 1986. […];
# Male mosquito fish = assay type: in vivo; conditions: for death of fish exposed to brevenal alone: monitored 24 h
# Procedure: Male mosquito fish (n=104) were used in this assay. Fish were placed individually in 50 mL beakers containing 20 mL water. The test compounds (PbTx-2 and brevenal) were dissolved in EtOH at a concentration of 0.1 mg/mL and added to the fish in a total of 200 μL EtOH. The control fish received 200 uL EtOH. Fish were exposed to toxin alone (1 μg/mL water), brevenal alone (1 or 2 μg/mL water), or both brevenal (1.0 μg/mL water and toxin (1.0 μg/mL water) with the brevenal being added 3 min. before the toxin. After addition of the difference compounds the fish were monitored for 24 h. or until the time of death. Significant differences were determined using a two-way Student's t-test.
Compound,Ki (rat brain synaptosome) [µM],EC50 (rat brain synaptosome) [µM],displacement of tritiated brevetoxin PbTx-2 (rat brain synaptosome) [%],"time of death after exposure, fish given brevenal and PbTx-2 (Male mosquito fish; brevenal 1.0 μg/mL water added 3 min. before PbTx-2 1.0 μg/mL water)",prolonging of life versus PbTx-2 only (Male mosquito fish; brevenal 1.0 μg/mL water added 3 min. before an equal concentration of PbTx-2) [fold],death of fish exposed to brevenal alone (Male mosquito fish; brevenal alone 1 μg/ml water),death of fish exposed to brevenal alone (Male mosquito fish; brevenal alone 2 μg/ml water)
di-O-Me brevenal,0.68,~1.35,~80,,,,
C=C/C=C\CC[C@H]1O[C@H]2CC[C@@]3(C)O[C@H]4[C@@H](O)C[C@@]5(C)O[C@@H](CC/C=C(C)/C(C)=C/C=O)[C@@H](C)C[C@@H]5O[C@@H]4C[C@@H]3O[C@@H]2CC[C@@]1(C)O [brevenal],1.86,~3.69,~80,about 17 min.,~2.5,did not die after 24 h,did not die after 24 h

# From patent US9133232B2, “Fused pentacyclic polyethers” (priority 2003, dated 2015)
